Values of other authors, collected in patent publication US5240711A, “Transdermal therapeutic system comprising as active component buprenorphine” (LTS Lohmann Therapie-Systeme GmbH & Co. KG, priority 1989, dated 1993).

Experiments:
[1] = system: human skin

CO[C@]12CC[C@@]3(C[C@@H]1[C@](C)(O)C(C)(C)C)[C@H]1Cc4ccc(O)c5c4[C@@]3(CCN1CC1CC1)[C@H]2O5 [buprenorphine, 17-(cyclopropylmethyl)-α-(1,1-dimethylethyl)-4,5-epoxy-18,19-dihydro-3-hydroxy-6-methoxy-α-methyl-6,14-ethenomorphinane-7-methanol]
solubility in conventional organic solvents and water: very slight solubility
penetration through the human skin [1]: only badly penetrates through the human skin
